Values after ≈ are worked out from the molar mass of the structure shown.
Legend:
Assay in all cases: ≥ marks a high value that may be exact or a test limit, other limits are often not marked, values filed in µg/mL are converted to µM
[1] = tested on: Candida albicans ATCC 2002
[2] = tested on: Staphylococcus aureus ATCC 25923
[3] = tested on: Pseudomonas aeruginosa CMCCB 10104
[4] = tested on: Escherichia coli ATCC 25922
[5] = tested on: Escherichia coli
[6] = tested on: Staphylococcus aureus
[7] = tested on: Staphylococcus epidermidis ATCC 12228
[8] = tested on: Escherichia coli UB1005
[9] = tested on: Staphylococcus aureus ATCC 29213
[10] = tested on: Acinetobacter baumannii
[11] = tested on: Pseudomonas aeruginosa
[12] = tested on: Salmonella enterica subsp. enterica serovar Typhimurium C77-31
[13] = tested on: Staphylococcus aureus ATCC 2592
[14] = tested on: Klebsiella pneumoniae ATCC 700603
[15] = tested on: Pseudomonas aeruginosa ATCC 9027

| SMILES | MIC [1] [µM] | MIC [2] [µM] | MIC [3] [µM] | MIC [4] [µM] | other results |
| --- | --- | --- | --- | --- | --- |
| CC[C@H](C)[C@H](NC(=O)CN)C(=O)N[C@@H](CC(C)C)C(=O)N[C@@H](CC(=O)O)C(=O)N[C@H](C(=O)N[C@@H](Cc1ccccc1)C(=O)N[C@@H](CCCCN)C(=O)N[C@@H](CC(N)=O)C(=O)N[C@@H](CCSC)C(=O)N[C@@H](C)C(=O)N[C@@H](CC(C)C)C(=O)N[C@@H](CC(N)=O)C(=O)N[C@@H](C)C(=O)N[C@@H](C)C(=O)N[C@@H](CCCCN)C(=O)N[C@@H](CO)C(=O)N[C@@H](C)C(=O)NCC(=O)N[C@H](C(=O)N[C@@H](CO)C(=O)N[C@H](C(=O)N[C@@H](CC(C)C)C(=O)N[C@@H](CC(N)=O)C(=O)N[C@@H](C)C(=O)N[C@@H](CC(C)C)C(=O)N[C@@H](CO)C(=O)N[C@H]1CSSC[C@@H](C(=O)O)NC(=O)[C@H]([C@@H](C)O)NC(=O)[C@H](CCCCN)NC(=O)[C@H](CO)NC(=O)[C@H](CC(C)C)NC(=O)[C@H](CCCCN)NC1=O)C(C)C)C(C)C)[C@@H](C)O [GILDTFKNMALNAAKSAGVSVLNALSCKLSKTC] | 1.78 (≈ 6 µg/mL) | 3.59 (≈ 12.1 µg/mL) | 3.59 (≈ 12.1 µg/mL) | 3.59 (≈ 12.1 µg/mL) |  |
| CC[C@H](C)[C@H](NC(=O)[C@H](CCCN=C(N)N)NC(=O)[C@H](Cc1c[nH]c2ccccc12)NC(=O)[C@H](CCCN=C(N)N)NC(=O)[C@@H](NC(=O)[C@H](CCCCN)NC(=O)[C@H](Cc1c[nH]c2ccccc12)NC(=O)[C@H](CCCN=C(N)N)NC(=O)[C@@H](NC(=O)[C@H](CCCN=C(N)N)NC(=O)[C@@H](N)Cc1c[nH]c2ccccc12)[C@@H](C)CC)[C@@H](C)O)C(=O)N[C@@H](CCCCN)C(N)=O [WRIRWKTRWRIK] |  | 2 (≈ 3.57 µg/mL) |  | 4 (≈ 7.14 µg/mL) | MIC [5]: 2 µM (≈ 3.57 µg/mL); MIC [6]: 2 µM (≈ 3.57 µg/mL); MIC [7]: 2 µM (≈ 3.57 µg/mL); MIC [8]: 2 µM (≈ 3.57 µg/mL); MIC [9]: 2 µM (≈ 3.57 µg/mL); MIC [10]: 2 µM (≈ 3.57 µg/mL); MIC [11]: 8 µM (≈ 14.3 µg/mL); MIC [12]: 2 µM (≈ 3.57 µg/mL) |
| CC[C@H](C)[C@H](N)C(=O)N[C@@H](CC(C)C)C(=O)N1CCC[C@H]1C(=O)N[C@@H](Cc1ccccc1)C(=O)N[C@H](C(=O)N[C@@H](C)C(=O)NCC(=O)N[C@H](C(=O)N[C@@H](C)C(=O)N[C@@H](C)C(=O)N[C@@H](CCC(=O)O)C(=O)N[C@@H](CCSC)C(=O)N[C@@H](CCSC)C(=O)N[C@@H](CCCCN)C(=O)N[C@@H](Cc1cnc[nH]1)C(=O)N[C@H](C(=O)N[C@@H](Cc1ccc(O)cc1)C(=O)N[C@H]1CSSC[C@@H](C(=O)O)NC(=O)[C@H](CCCCN)NC(=O)[C@H](CCCCN)NC(=O)[C@H](CO)NC(=O)[C@H](C)NC(=O)[C@H](C)NC1=O)C(C)C)C(C)C)C(C)C [ILPFVAGVAAEMMKHVYCAASKKC] | 2.96 (≈ 7.59 µg/mL) | 5.92 (≈ 15.2 µg/mL) | 11.8 (≈ 30.4 µg/mL) | 5.92 (≈ 15.2 µg/mL) |  |
| CC[C@H](C)[C@H](NC(=O)[C@@H]1CCCN1C(=O)[C@@H](NC(=O)[C@@H](N)C(C)C)[C@@H](C)CC)C(=O)N[C@H](C(=O)N[C@@H](CO)C(=O)NCC(=O)N[C@@H](CC(C)C)C(=O)N[C@@H](CC(C)C)C(=O)N[C@@H](CO)C(=O)N[C@@H](CO)C(=O)N[C@@H](CC(C)C)C(=O)N[C@@H](CC(C)C)C(N)=O)C(C)C [VIPIVSGLLSSLL] |  |  |  | 9.54 (≈ 12.5 µg/mL) | MIC [13]: 4.77 µM (≈ 6.25 µg/mL) |
| CC[C@H](C)[C@H](N)C(=O)N[C@H](C(=O)N1CCC[C@H]1C(=O)N[C@@H](Cc1ccccc1)C(=O)N[C@H](C(=O)N[C@@H](C)C(=O)NCC(=O)N[C@H](C(=O)N[C@@H](C)C(=O)N[C@@H](C)C(=O)N[C@@H](CCC(=O)O)C(=O)N[C@@H](CCSC)C(=O)N[C@@H](CCSC)C(=O)N[C@@H](CCC(=O)O)C(=O)N[C@@H](Cc1cnc[nH]1)C(=O)N[C@H](C(=O)N[C@@H](Cc1ccc(O)cc1)C(=O)N[C@H]1CSSC[C@@H](C(=O)O)NC(=O)[C@H](CCCCN)NC(=O)[C@H](CCCCN)NC(=O)[C@H](CO)NC(=O)[C@H](C)NC(=O)[C@H](C)NC1=O)C(C)C)C(C)C)C(C)C)[C@@H](C)CC [IIPFVAGVAAEMMEHVYCAASKKC] | 4.32 (≈ 11.1 µg/mL) | 8.64 (≈ 22.2 µg/mL) | 8.64 (≈ 22.2 µg/mL) | 4.32 (≈ 11.1 µg/mL) |  |
| CC[C@H](C)[C@H](NC(=O)[C@H](Cc1ccccc1)NC(=O)[C@H](CO)NC(=O)[C@H](CCCCN)NC(=O)[C@H](CC(C)C)NC(=O)[C@H](CCCCN)NC(=O)[C@H](CCCCN)NC(=O)[C@H](CC(C)C)NC(=O)[C@@H](NC(=O)[C@@H](NC(=O)[C@@H](N)Cc1ccccc1)[C@@H](C)O)[C@@H](C)CC)C(=O)N[C@@H](CCCCN)C(=O)O [FTILKKLKSFIK] |  | > 64 |  | > 64 | MIC [14]: > 64 µM; MIC [15]: 32 µM (≈ 46.9 µg/mL); MIC [10]: ≥ 64 µM |
| CC[C@H](C)[C@H](NC(=O)[C@@H](NC(=O)[C@H](CC(=O)O)NC(=O)[C@H](CC(C)C)NC(=O)[C@H](CC(C)C)NC(=O)CN)[C@@H](C)O)C(=O)N[C@@H](CCCCN)C(=O)N[C@@H](CC(N)=O)C(=O)N[C@@H](CCSC)C(=O)N[C@@H](C)C(=O)N[C@@H](CC(C)C)C(=O)N[C@@H](CC(N)=O)C(=O)N[C@@H](C)C(=O)N[C@@H](C)C(=O)N[C@@H](CCCCN)C(=O)N[C@@H](CO)C(=O)N[C@@H](C)C(=O)NCC(=O)N[C@H](C(=O)N[C@@H](CO)C(=O)N[C@H](C(=O)N[C@@H](CC(C)C)C(=O)N[C@@H](CC(N)=O)C(=O)N[C@@H](CO)C(=O)N[C@@H](CC(C)C)C(=O)N[C@@H](CO)C(=O)N[C@H]1CSSC[C@@H](C(=O)O)NC(=O)[C@H]([C@@H](C)O)NC(=O)[C@H](CCCCN)NC(=O)[C@H](CO)NC(=O)[C@H](CC(C)C)NC(=O)[C@H](CCCCN)NC1=O)C(C)C)C(C)C [GLLDTIKNMALNAAKSAGVSVLNSLSCKLSKTC] | 3.61 (≈ 12.1 µg/mL) | 3.61 (≈ 12.1 µg/mL) | 1.79 (≈ 6 µg/mL) | 3.61 (≈ 12.1 µg/mL) |  |
| CC[C@H](C)[C@H](N)C(=O)N1CCC[C@H]1C(=O)N[C@@H](CC(C)C)C(=O)N[C@@H](CC(C)C)C(=O)N[C@@H](CCCN=C(N)N)C(=O)N[C@@H](CCCCN)C(=O)NCC(=O)N[C@@H](CCCCN)C(=O)N[C@@H](CCCCN)C(=O)N[C@H](C(=O)N[C@H](C(=O)N[C@@H](Cc1c[nH]c2ccccc12)C(=O)N[C@@H](Cc1c[nH]c2ccccc12)C(=O)O)[C@@H](C)CC)[C@@H](C)CC [IPLLRKGKKIIWW] |  | > 64 |  | > 64 | MIC [14]: > 64 µM; MIC [15]: 64 µM (≈ 106 µg/mL); MIC [10]: ≥ 64 µM |
| CC(C)[C@H](N)C(=O)N[C@H](C(=O)N[C@@H](CCCCN)C(=O)N[C@@H](Cc1ccccc1)C(=O)N[C@@H](CO)C(=O)N[C@@H](Cc1ccc(O)cc1)C(=O)N[C@@H](CCCN=C(N)N)C(=O)N[C@@H](CCCCN)C(=O)NCC(=O)N[C@@H](CO)C(=O)N1CCC[C@H]1C(=O)N[C@@H](C)C(=O)N1CCC[C@H]1C(=O)N[C@@H](CCC(N)=O)C(=O)N[C@@H](CCCCN)C(=O)N[C@@H](CC(N)=O)C(=O)O)C(C)C [VVKFSYRKGSPAPQKN] | ≥ 111 | > 111 | ≥ 111 | > 111 |  |
| CC(C)C[C@@H]1NC(=O)[C@H](CCCCN)NC(=O)[C@H](CC(=O)O)NC(=O)[C@H](CC(N)=O)NC(=O)[C@H](Cc2ccc(O)cc2)NC(=O)[C@@H](NC(=O)[C@H](CCCCN)NC(=O)[C@@H]2CCCN2C(=O)[C@H](C)NC(=O)[C@H](CCCCN)NC(=O)[C@H](CS)NC(=O)[C@H](CCCCN)NC(=O)[C@H](CC(C)C)NC(=O)[C@H](CCCCN)NC(=O)[C@H](CC(C)C)NC(=O)[C@H](CCCCN)NC(=O)[C@H](CCC(=O)O)NC(=O)[C@@H](N)CCCCN)CSSC[C@@H](C(=O)N[C@H](C(=O)O)[C@@H](C)O)NC(=O)[C@H](C)NC1=O [KEKLKLKCKAPKCYNDKLACT] | ≥ 82.4 | > 82.4 | ≥ 82.4 | > 82.4 |  |
| CC[C@H](C)[C@H](N)C(=O)N[C@@H](CC(=O)O)C(=O)N1CCC[C@H]1C(=O)N[C@@H](Cc1ccccc1)C(=O)N[C@H](C(=O)N[C@@H](C)C(=O)NCC(=O)N[C@H](C(=O)N[C@@H](C)C(=O)N[C@@H](C)C(=O)N[C@@H](CCC(=O)O)C(=O)N[C@@H](CCSC)C(=O)N[C@@H](CCSC)C(=O)N[C@@H](CCC(N)=O)C(=O)N[C@@H](Cc1cnc[nH]1)C(=O)N[C@H](C(=O)N[C@@H](Cc1ccc(O)cc1)C(=O)N[C@H]1CSSC[C@@H](C(=O)O)NC(=O)[C@H](CCCCN)NC(=O)[C@H](CCCCN)NC(=O)[C@H](CO)NC(=O)[C@H](C)NC(=O)[C@H](C)NC1=O)C(C)C)C(C)C)C(C)C [IDPFVAGVAAEMMQHVYCAASKKC] | 7.08 (≈ 18.2 µg/mL) | 7.08 (≈ 18.2 µg/mL) | 7.08 (≈ 18.2 µg/mL) | 3.54 (≈ 9.09 µg/mL) |  |

Source: DBAASP
